Assay results taken from PMC12974487, “Inhibition of FicD-mediated AMPylation and deAMPylation by isoprenoid diphosphates” (Proceedings of the National Academy of Sciences of the …, 2026).
Residue numbers refer to the chain shown, from its start.

How the values were obtained:
Type in all cases: binding
FicD^R371S = molecular target: T1, FicD^R371S (Homo sapiens, UniProt Q9BVA6, R371S); assay: DSF with FicD^R371S variant; conditions: addition of 5 mM MgCl2, any concentration tested
T1 construct: Wild-type FicD (residues 105-458) and all mutants were expressed as N-terminal 6xHis-Sumo fusions; 6xHis-Sumo (N, cleaved yes); made in house; host or cells: Rosetta(DE3) E. coli
T1 sequence (Q9BVA6 105-458 R371S): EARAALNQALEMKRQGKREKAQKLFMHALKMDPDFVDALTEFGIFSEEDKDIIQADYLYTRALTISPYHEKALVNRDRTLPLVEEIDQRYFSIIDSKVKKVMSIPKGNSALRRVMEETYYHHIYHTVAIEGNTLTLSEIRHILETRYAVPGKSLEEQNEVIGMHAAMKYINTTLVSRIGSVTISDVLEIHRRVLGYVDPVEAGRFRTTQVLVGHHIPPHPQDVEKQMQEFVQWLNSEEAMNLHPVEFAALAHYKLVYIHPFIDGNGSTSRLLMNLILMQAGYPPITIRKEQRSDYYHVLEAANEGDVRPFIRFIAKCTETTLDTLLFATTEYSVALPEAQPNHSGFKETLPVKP

FicD^R374H = molecular target: T2, FicD^R374H (Homo sapiens, UniProt Q9BVA6, R374H); assay: DSF with FicD^R374H variant
T2 construct: Wild-type FicD (residues 105-458) and all mutants were expressed as N-terminal 6xHis-Sumo fusions; 6xHis-Sumo (N, cleaved yes); made in house; host or cells: Rosetta(DE3) E. coli
T2 sequence (Q9BVA6 105-458 R374H): T1 sequence (Q9BVA6 105-458 R371S) with S267R, R270H

FicD^R374C = molecular target: T3, FicD^R374C (Homo sapiens, UniProt Q9BVA6, R374C); assay: DSF with FicD^R374C variant
T3 construct: Wild-type FicD (residues 105-458) and all mutants were expressed as N-terminal 6xHis-Sumo fusions; 6xHis-Sumo (N, cleaved yes); made in house; host or cells: Rosetta(DE3) E. coli
T3 sequence (Q9BVA6 105-458 R374C): T1 sequence (Q9BVA6 105-458 R371S) with S267R, R270C

CC(C)=CCC/C(C)=C/CC/C(C)=C/COP(=O)(O)OP(=O)(O)O [FPP, farnesyl-pyrophosphate]
binding to FicD^R371S by DSF (FicD^R371S): did not confer FPP binding | binding to R374H variant by DSF (melting curve shift) (FicD^R374H; absence of Mg2+): caused shifts in the melting curves | binding to R374H variant by DSF (melting curve shift) (FicD^R374H; addition of Mg2+): enhanced the binding | binding to R374C variant by DSF (melting curve shift) (FicD^R374C; absence of Mg2+): caused shifts in the melting curves | binding to R374C variant by DSF (melting curve shift) (FicD^R374C; addition of Mg2+): enhanced the binding
